Measurements published in patent publication US8877944B2, “3-oxo-2,3-dihydro-1H-isoindole-4-carboxamides as PARP inhibitors” (Nerviano Medical Sciences S.R.L., priority 2009, dated 2014).

Key:
PARP-1 FL = PARP-1 FL (Homo sapiens (Human), UniProt P09874); assay: Fluorescence polarization probe displacement assay, PARP-1; type: binding; settings: for DC50: half maximal displacement concentration
Experimental: (§1) Affinity evaluation of the tested compounds and their selectivity with respect to the different PARP isoforms of interest was assessed in a displacement assay.
(§2) The polarization signal can be measured, e.g., by a plate reader such as the Saphire2 (Tecan). The displacement ability of the test compound is in correlation with the compound affinity for the NAD pocket of the enzyme.
(§3) The assay performances were then evaluated (Z′ factor) as well as the displacement of the probe by its scaffold and known commercially available PARP inhibitors. In all of the experiments, the polarization signal was measured using a Saphire2 plate reader (Tecan). Data analysis was performed using Dynafit software. In particular, titration data were fitted to the following equilibria: Enzyme+probe <==> Complex Enzyme-probe, while displacement data were fitted to the following equilibria: Enzyme+probe <==> Complex Enzyme-probe, Enzyme+Compound <==> Complex Enzyme-Compound, whereby binding of probe and compound on the enzyme are mutually exclusive (pure competitive mechanism). Displacement data were also fitted using Excell spreadsheet (Microsoft Inc. Seattle, USA) to a four parameter logistic model (4PL), or Hill-Slope model to calculate DC50s where the DC50 value represents the compound concentration at which the polarization signal is diminished by 50% compared to untreated controls.
(§4) KD values, are the average of three independent experiments.

PARP-2 FL = PARP-2 FL (Homo sapiens (Human), UniProt Q9UGN5); assay: Fluorescence polarization probe displacement assay, PARP-2; type: binding; settings: read-out: PARP-2 DC50; half maximal displacement concentration
Experimental: as §1, §2, §3, §4

PARP-3 FL = PARP-3 FL (Homo sapiens (Human), UniProt Q9Y6F1); assay: Fluorescence polarization probe displacement assay, PARP-3; type: binding; settings: half maximal displacement concentration
Experimental: as §1, §2, §3, §4

[1] = system: PAR formation in HeLa cells; assay: Cellular PAR assay: inhibition of hydrogen peroxide induced PAR formation; settings: Homo sapiens, read-out: PAR assay IC50
Experimental: Compounds potencies were evaluated by measuring the inhibition of poly (ADP-ribose) (PAR) chains formation as a marker for PARP-1 inhibition.
Cellular activity of PARP-1 inhibitors was assessed by measuring the inhibition of the hydrogen peroxide induced PAR formation in HeLa cells (ECACC). Cellular PAR levels were measured by immunocytochemistry, and quantified using an ArrayScan vTi instrument (Cellomics Thermo Scientific).
Test compounds were then added at the required concentration for 30′. […] Concentration curves were prepared in MEM/10% FCS from compound stocks in DMSO, and final DMSO concentration was 0.002% (v/v). Duplicate wells for each concentration point were prepared with a typical highest compound concentration of 20 μM and serial dilution 1:3. […] Non-specific binding sites were blocked by incubating wells for 30 min in PBS containing 5% (w/v) FBS 0.05% tween20. […] After washing further 3 times in PBS, cellular PAR immunoreactivity was assessed using the ArrayScan vTi instrument, with a Zeiss 10×0.5 N.A. objective, and applying the Cytotoxicity.V3 algorithm (Cellomics/Thermo Fisher) with a XF100 filter. At least 10 fields, corresponding to at least 900 cells, were read for each well.
The following formula is used: IC50=Bottom+(Top-Bottom)/(1+10^((LogEC50−X))); X is the logarithm of concentration. IC50 is the response; IC50 starts at Bottom and goes to Top with a sigmoid shape.

[2] = compound P1 as the probe, 250 nM PARP-1

PARP-1 FL, sequence (P09874 whole entry): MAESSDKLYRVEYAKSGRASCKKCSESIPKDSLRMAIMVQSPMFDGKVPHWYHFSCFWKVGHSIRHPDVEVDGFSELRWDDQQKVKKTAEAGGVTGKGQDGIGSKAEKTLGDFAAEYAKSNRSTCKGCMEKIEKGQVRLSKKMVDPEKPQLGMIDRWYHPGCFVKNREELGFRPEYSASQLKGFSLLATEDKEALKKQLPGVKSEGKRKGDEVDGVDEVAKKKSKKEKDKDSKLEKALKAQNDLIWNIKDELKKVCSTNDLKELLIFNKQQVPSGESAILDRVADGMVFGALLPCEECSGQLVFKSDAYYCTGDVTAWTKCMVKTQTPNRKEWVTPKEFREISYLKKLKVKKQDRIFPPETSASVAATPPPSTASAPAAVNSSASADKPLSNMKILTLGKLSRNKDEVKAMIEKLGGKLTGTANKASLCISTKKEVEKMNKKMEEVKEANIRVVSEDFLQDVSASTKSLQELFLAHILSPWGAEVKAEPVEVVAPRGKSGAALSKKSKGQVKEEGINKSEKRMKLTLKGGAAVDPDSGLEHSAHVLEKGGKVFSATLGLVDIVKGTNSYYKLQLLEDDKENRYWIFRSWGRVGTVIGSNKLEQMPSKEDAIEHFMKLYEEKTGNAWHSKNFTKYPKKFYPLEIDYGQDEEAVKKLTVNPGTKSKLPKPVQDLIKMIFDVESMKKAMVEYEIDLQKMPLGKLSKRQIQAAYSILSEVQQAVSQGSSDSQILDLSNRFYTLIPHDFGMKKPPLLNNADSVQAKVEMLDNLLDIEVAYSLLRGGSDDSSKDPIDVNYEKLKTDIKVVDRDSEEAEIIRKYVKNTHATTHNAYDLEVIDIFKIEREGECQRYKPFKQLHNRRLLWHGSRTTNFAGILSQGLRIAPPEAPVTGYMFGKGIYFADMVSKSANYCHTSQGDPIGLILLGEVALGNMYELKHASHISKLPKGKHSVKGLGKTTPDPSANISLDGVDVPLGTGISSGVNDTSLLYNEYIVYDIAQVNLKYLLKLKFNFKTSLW
PARP-3 FL, sequence (Q9Y6F1 whole entry): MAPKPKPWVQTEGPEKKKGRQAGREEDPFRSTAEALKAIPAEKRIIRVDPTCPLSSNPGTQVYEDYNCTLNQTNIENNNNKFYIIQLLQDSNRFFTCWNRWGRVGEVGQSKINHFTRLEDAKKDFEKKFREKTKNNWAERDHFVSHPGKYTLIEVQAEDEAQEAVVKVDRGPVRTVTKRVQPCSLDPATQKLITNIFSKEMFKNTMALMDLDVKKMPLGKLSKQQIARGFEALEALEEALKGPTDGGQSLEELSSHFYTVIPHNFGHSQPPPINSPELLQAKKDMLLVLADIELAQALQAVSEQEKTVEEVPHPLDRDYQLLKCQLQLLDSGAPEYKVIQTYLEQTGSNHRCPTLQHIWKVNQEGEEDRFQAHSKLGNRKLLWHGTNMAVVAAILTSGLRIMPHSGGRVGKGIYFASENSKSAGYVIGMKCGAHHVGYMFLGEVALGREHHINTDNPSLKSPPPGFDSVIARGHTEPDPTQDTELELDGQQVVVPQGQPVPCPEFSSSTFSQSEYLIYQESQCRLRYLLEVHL
PARP-2 FL, sequence (Q9UGN5 whole entry): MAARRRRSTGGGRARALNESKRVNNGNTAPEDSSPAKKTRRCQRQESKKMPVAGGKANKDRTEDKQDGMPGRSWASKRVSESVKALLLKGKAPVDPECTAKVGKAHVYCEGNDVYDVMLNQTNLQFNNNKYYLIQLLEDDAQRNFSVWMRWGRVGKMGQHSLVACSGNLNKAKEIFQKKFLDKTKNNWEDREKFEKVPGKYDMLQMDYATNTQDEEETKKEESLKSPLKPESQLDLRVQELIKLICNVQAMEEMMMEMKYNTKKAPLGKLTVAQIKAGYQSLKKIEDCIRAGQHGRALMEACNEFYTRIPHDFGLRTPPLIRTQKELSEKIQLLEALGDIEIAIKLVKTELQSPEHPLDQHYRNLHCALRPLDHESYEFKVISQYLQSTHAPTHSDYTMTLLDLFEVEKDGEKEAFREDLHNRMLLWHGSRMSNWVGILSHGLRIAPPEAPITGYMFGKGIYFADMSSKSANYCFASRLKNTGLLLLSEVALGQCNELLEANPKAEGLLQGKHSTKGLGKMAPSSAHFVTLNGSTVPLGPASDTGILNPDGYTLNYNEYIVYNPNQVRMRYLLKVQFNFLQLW

SMILES | Kd (PARP-1 FL; compound P3 as the probe, 100 nM PARP-1) [µM] | DC50 (PARP-1 FL) [µM] | DC50 (PARP-2 FL) [µM] | DC50 (PARP-3 FL) [µM] | IC50 [1] [µM] | Kd (PARP-1 FL; [2]) [µM]
CO[C@H]1CC[C@@H](N2CCC(N3Cc4cccc(C(N)=O)c4C3=O)CC2)CC1 [Compound 1, 2-[1-(Cis-4-methoxycyclohexyl)piperidin-4-yl]-3-oxo-2,3-dihydro-1H-isoindole-4-carboxamide] | 0.06 | < 0.25 | > 10 | 3.7 | 0.39 | 
COC[C@H]1CC[C@@H](N2CCC(N3Cc4cccc(C(N)=O)c4C3=O)CC2)CC1 [Compound 5, 2-{1-[Cis-4-(methoxymethyl)cyclohexyl]piperidin-4-yl}-3-oxo-2,3-dihydro-1H-isoindole-4-carboxamide] |  | < 0.25 | > 10 |  | 4.6 | 0.04
COC[C@H]1CC[C@H](N2CCC(N3Cc4cccc(C(N)=O)c4C3=O)CC2)CC1 [Compound 6, 2-{1-[Trans-4-(methoxymethyl)cyclohexyl]piperidin-4-yl}-3-oxo-2,3-dihydro-1H-isoindole-4-carboxamide] |  | < 0.25 | > 10 |  | 2.3 | < 0.03
NC(=O)c1cccc2c1C(=O)N(C1CCN(Cc3ccc4ccccc4n3)CC1)C2 [Compound 16, 3-oxo-2-[1-(quinolin-2-ylmethyl)piperidin-4-yl]-2,3-dihydro-1H-isoindole-4-carboxamide] |  | < 0.25 | 3.2 |  |  | < 0.03
NC(=O)c1cccc2c1C(=O)N(C1CCN(Cc3ccc(F)cc3F)CC1)C2 [Compound 17, 2-[1-(2,4-Difluorobenzyl)piperidin-4-yl]-3-oxo-2,3-dihydro-1H-isoindole-4-carboxamide] |  | < 0.25 | > 10 |  | 5.77 | < 0.03
Cc1ccc(CN2CCC(N3Cc4cccc(C(N)=O)c4C3=O)CC2)cc1C [Compound 18, 2-[1-(3,4-Dimethylbenzyl)piperidin-4-yl]-3-oxo-2,3-dihydro-1H-isoindole-4-carboxamide] |  | < 0.25 | > 10 |  | 7.1 | < 0.03
Cc1ncsc1CN1CCC(N2Cc3cccc(C(N)=O)c3C2=O)CC1 [Compound 26, 2-{1-[(4-Methyl-1,3-thiazol-5-yl)methyl]piperidin-4-yl}-3-oxo-2,3-dihydro-1H-isoindole-4-carboxamide] |  | < 0.25 | 6.5 |  | 0.2 | < 0.03
NC(=O)c1cccc2c1C(=O)N(C1CCN(Cc3cccc4[nH]ccc34)CC1)C2 [Compound 28, 2-[1-(1H-indol-4-ylmethyl)piperidin-4-yl]-3-oxo-2,3-dihydro-1H-isoindole-4-carboxamide] |  | < 0.25 |  |  | 0.19 | 0.034
Cn1cc(CN2CCC(N3Cc4cccc(C(N)=O)c4C3=O)CC2)cn1 [Compound 33, 2-{1-[(1-Methyl-1H-pyrazol-4-yl)methyl]piperidin-4-yl}-3-oxo-2,3-dihydro-1H-isoindole-4-carboxamide] |  | < 0.25 | > 10 |  | 1.1 | 
Cc1c(CN2CCC(N3Cc4cccc(C(N)=O)c4C3=O)CC2)cnn1C [Compound 34, 2-{1-[(1,5-Dimethyl-1H-pyrazol-4-yl)methyl]piperidin-4-yl}-3-oxo-2,3-dihydro-1H-isoindole-4-carboxamide] |  | 0.34 | > 10 |  | 0.9 | 0.13
Cc1ccsc1CN1CCC(N2Cc3cccc(C(N)=O)c3C2=O)CC1 [Compound 36, 2-{1-[(3-Methylthiophen-2-yl)methyl]piperidin-4-yl}-3-oxo-2,3-dihydro-1H-isoindole-4-carboxamide] |  | < 0.25 | 9.4 |  | 0.23 | < 0.03
CCCOc1ccc(CN2CCC(N3Cc4cccc(C(N)=O)c4C3=O)CC2)cc1 [Compound 37, 3-oxo-2-[1-(4-propoxybenzyl)piperidin-4-yl]-2,3-dihydro-1H-isoindole-4-carboxamide] |  | < 0.25 | > 10 |  | 0.26 | < 0.03
CC(C)c1ccc(CN2CCC(N3Cc4cccc(C(N)=O)c4C3=O)CC2)cc1 [Compound 38, 3-oxo-2-{1-[4-(propan-2-yl)benzyl]piperidin-4-yl}-2,3-dihydro-1H-isoindole-4-carboxamide] |  | < 0.25 | > 10 |  | 0.26 | < 0.03
CC(C)Oc1ccccc1CN1CCC(N2Cc3cccc(C(N)=O)c3C2=O)CC1 [Compound 41, 3-oxo-2-{1-[2-(propan-2-yloxy)benzyl]piperidin-4-yl}-2,3-dihydro-1H-isoindole-4-carboxamide] |  | 0.47 | > 10 |  |  | 
CC(C)Oc1ccc(CN2CCC(N3Cc4cccc(C(N)=O)c4C3=O)CC2)cc1 [Compound 44, 3-oxo-2-{1-[4-(propan-2-yloxy)benzyl]piperidin-4-yl}-2,3-dihydro-1H-isoindole-4-carboxamide] |  | < 0.25 | > 10 |  | 0.5 | 
Cc1ccc(CN2CCC(N3Cc4cccc(C(N)=O)c4C3=O)CC2)s1 [Compound 45, 2-{1-[(5-Methylthiophen-2-yl)methyl]piperidin-4-yl}-3-oxo-2,3-dihydro-1H-isoindole-4-carboxamide] |  | < 0.25 | > 10 |  | 0.36 | < 0.03
NC(=O)c1cccc2c1C(=O)N(CCCN1CCN(c3cccc(Cl)c3)CC1)C2 [Compound 46, 2-{3-[4-(3-Chloro-phenyl)-piperazin-1-yl]-propyl}-3-oxo-2,3-dihydro-1H-isoindole-4-carboxylic acid amide] |  | < 0.25 | 1.46 |  | 0.4 | 
NC(=O)c1cccc2c1C(=O)N(CC1CCN(Cc3ccc(F)cc3)CC1)C2 [Compound 51, 2-{[1-(4-Fluorobenzyl)piperidin-4-yl]methyl}-3-oxo-2,3-dihydro-1H-isoindole-4-carboxamide] |  | < 0.25 | 5.68 |  | 0.16 | < 0.03
NC(=O)c1cc(Cl)cc2c1C(=O)N(C1CCN(C3CCC(F)(F)CC3)CC1)C2 [Compound 100, 2-[1-(4,4-Difluorocyclohexyl)-piperidin-4-yl]-6-chloro-3-oxo-2,3-dihydro-1H-isoindole-4-carboxamide] |  |  | > 10 | 0.79 |  | 
NC(=O)c1ccc(F)c2c1C(=O)N(C1CCN(C3CCC(F)(F)CC3)CC1)C2 [Compound 101, 2-[1-(4,4-Difluorocyclohexyl)-piperidin-4-yl]-7-fluoro-3-oxo-2,3-dihydro-1H-isoindole-4-carboxamide] |  |  | > 10 | > 10 |  | 
NC(=O)c1cc(F)cc2c1C(=O)N(C1CCN(C3CCC(Cl)(Cl)CC3)CC1)C2 [Compound 105, 2-[1-(4,4-Dichlorocyclohexyl)piperidin-4-yl]-6-fluoro-3-oxo-2,3-dihydro-1H-isoindole-4-carboxamide] |  |  | > 10 | 1.08 |  | 

Now from value to molecule:

Kd (PARP-1 FL; compound P3 as the probe, 100 nM PARP-1) [µM] | DC50 (PARP-1 FL) [µM] | DC50 (PARP-2 FL) [µM] | DC50 (PARP-3 FL) [µM] | IC50 [1] [µM] | Kd (PARP-1 FL; [2]) [µM] | SMILES
 |  | > 10 |  |  |  | NC(=O)c1cccc2c1C(=O)N(C1CCN(Cc3ccc(F)cc3)CC1)C2 [Compound 11, 2-[1-(4-Fluorobenzyl)piperidin-4-yl]-3-oxo-2,3-dihydro-1H-isoindole-4-carboxamide]
 | < 0.25 | > 10 |  |  | < 0.03 | NC(=O)c1cccc2c1C(=O)N(C1CCN(Cc3ccccc3F)CC1)C2 [Compound 12, 2-[1-(2-Fluorobenzyl)piperidin-4-yl]-3-oxo-2,3-dihydro-1H-isoindole-4-carboxamide]
 | < 0.25 | > 10 |  |  | < 0.03 | NC(=O)c1cccc2c1C(=O)N(C1CCN(Cc3cccc(F)c3)CC1)C2 [Compound 13, 2-[1-(3-Fluorobenzyl)piperidin-4-yl]-3-oxo-2,3-dihydro-1H-isoindole-4-carboxamide]
 | 0.26 | > 10 |  | 0.32 | < 0.03 | NC(=O)c1cccc2c1C(=O)N(C1CCN(CC3CCN(Cc4ccccc4)CC3)CC1)C2 [Compound 27, 2-{1-[(1-Benzylpiperidin-4-yl)methyl]piperidin-4-yl}-3-oxo-2,3-dihydro-1H-isoindole-4-carboxamide]
 | < 0.25 | 5.97 |  | 0.3 |  | NC(=O)c1cccc2c1C(=O)N(C1CCN(Cc3ccc4cc[nH]c4c3)CC1)C2 [Compound 30, 2-[1-(1H-indol-6-ylmethyl)piperidin-4-yl]-3-oxo-2,3-dihydro-1H-isoindole-4-carboxamide]
 | < 0.25 | > 10 |  | 0.3 | < 0.03 | COc1cccc(CN2CCC(N3Cc4cccc(C(N)=O)c4C3=O)CC2)c1 [Compound 35, 2-[1-(3-Methoxybenzyl)piperidin-4-yl]-3-oxo-2,3-dihydro-1H-isoindole-4-carboxamide]
 | < 0.25 | > 10 |  | 0.33 | < 0.03 | COc1ccc(CN2CCC(N3Cc4cccc(C(N)=O)c4C3=O)CC2)cc1 [Compound 39, 2-[1-(4-Methoxybenzyl)piperidin-4-yl]-3-oxo-2,3-dihydro-1H-isoindole-4-carboxamide]
 | < 0.25 | > 10 |  | 0.62 | 0.11 | CCOc1cccc(CN2CCC(N3Cc4cccc(C(N)=O)c4C3=O)CC2)c1 [Compound 40, 2-[1-(3-Ethoxybenzyl)piperidin-4-yl]-3-oxo-2,3-dihydro-1H-isoindole-4-carboxamide]
 | < 0.25 | 4.15 |  | 5.31 | 0.033 | NC(=O)c1cccc2c1C(=O)N(C1CCN(Cc3cccc(Cl)c3)CC1)C2 [Compound 42, 2-[1-(3-Chlorobenzyl)piperidin-4-yl]-3-oxo-2,3-dihydro-1H-isoindole-4-carboxamide]
 | < 0.25 | > 10 |  | 2.66 | < 0.03 | CCc1ccc(CN2CCC(N3Cc4cccc(C(N)=O)c4C3=O)CC2)cc1 [Compound 43, 2-[1-(4-Ethylbenzyl)piperidin-4-yl]-3-oxo-2,3-dihydro-1H-isoindole-4-carboxamide]
